From patent US9265253B2, “Use of macrocyclic picolinamides as fungicides” (DOW AGROSCIENCES LLC, priority 2013, dated 2016) come the findings set out here.

Molecules are shown by their SMILES. Where two headings read alike, the source gives them in different places.

Holding throughout (assay type): in vivo
Assay [1] relates to Puccinia triticina; Synonym: Puccinia recondite f. Sp. Tritici. Briefly: Wheat Brown Rust (PUCCRT) disease control. As to conditions: for pest or weed control at 100 ppm / pest or weed control at 121.5 g/ha: Puccinia triticina, topical. Summed up:
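Brown rust on first-leaf Yuma wheat: spore inoculation before or after spray application (acetone/Triton X-100 solution, or EC with Trycol in track spray), overnight 100% RH at 22 °C, disease developed at 24 °C. Severity scored 0–100% and converted to percent control against untreated.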

A further assay has as its system Erysiphe cichoracearum. Briefly: Powdery Mildew of Cucumber (ERYSCI) disease control. The conditions noted are these: 1 Day Protectant; for pest or weed control at 100 ppm: Golovinomyces cichoracearum, topical, 24 h, read-out: Disease Control ERYSCI 1 DP. In outline: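 Cucumber seedlings aged 12–14 days were sprayed to run-off with compound in acetone/water containing 110 ppm Triton X-100, then inoculated with spore suspension 24 h later. Plants were held at 20 °C until disease was fully expressed. Disease control was derived from percent severity on treated versus untreated leaves.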

The next assay relates to Venturia inaequalis. Briefly: Apple Scab (VENTIN) disease control. As to conditions: 1 Day Protectant; for pest or weed control at 100 ppm: Venturia inaequalis, topical, 24 h, read-out: Disease Control VENTIN 1 DP. On the procedure: Technical grades of materials were dissolved in acetone, which were then mixed with nine volumes of water containing 110 ppm Triton X-100. The fungicide solutions were applied onto wheat seedlings using an automated booth sprayer to run-off. All sprayed plants were allowed to air dry prior to further handling. All fungicides were evaluated using the aforementioned method for their activity vs. all target diseases. Wheat leaf blotch and brown rust activity were also evaluated using track spray applications, in which case the fungicides were formulated as EC formulations, containing 0.1% Trycol 5941 in the spray solutions. Wheat plants (variety Yuma) were grown from seed in a greenhouse in 50% mineral soil/50% soil-less Metro mix until the first leaf was fully emerged, with 7-10 seedlings per pot. These plants were inoculated with an aqueous spore suspension of Septoria tritici either prior to or after fungicide treatments. After inoculation the plants were kept in 100% relative humidity (one day in a dark dew chamber followed by two to three days in a lighted dew chamber at 20° C.) to permit spores to germinate and infect the leaf. The plants were then transferred to a greenhouse set at 20° C. for disease to develop. When disease symptoms were fully expressed on the 1st leaves of untreated plants, infection levels were assessed on a scale of 0 to 100 percent disease severity. Percent disease control was calculated using the ratio of disease severity on treated plants relative to untreated plants. Apple seedlings (variety McIntosh) were grown in soil-less Metro mix, with one plant per pot. Seedlings with two expanding young leaves at the top (older leaves at bottom of the plants were trimmed) were used in the test. Plants were inoculated with a spore suspension of Venturia inaequalis 24 hr after fungicide treatment and kept in a 22° C. dew chamber with 100% RH for 48 hr, and then moved to a greenhouse set at 20° C. for disease to develop. Fungicide formulation, application and disease assessment on the sprayed leaves followed the procedures as described in the Example A.

Assay [2] relates to Mycosphaerella graminicola; Anamorph: Septoria tritici. Briefly: Leaf Blotch of Wheat (SEPTTR) disease control. As to conditions: for pest or weed control at 100 ppm / pest or weed control at 121.5 g/ha: Zymoseptoria tritici. In outline:
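Preventive or curative tests: first-leaf Yuma wheat, sprayed to run-off, inoculated with S. tritici, dew chamber at 100% humidity, then greenhouse at 20° C. Severity on the first leaf is scored on a 0–100% scale and expressed as % control against untreated plants.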

Where [3] appears, read: 24 h, 1 Day Protectant, rate 100 ppm, read-out: PUCCRT 1 DP disease control.
[4] abbreviates: 24 h, 1 Day Protectant, rate 121.5 g/H, read-out: PUCCRT 1 DP disease control.
The mark [5] stands for this setting: 72 h, 3 Day Curative, rate 100 ppm, read-out: PUCCRT 3 DC disease control.
Where [6] appears, read: 72 h, 3 Day Curative, rate 121.5 g/H, read-out: PUCCRT 3 DC disease control.
The mark [7] stands for this setting: 24 h, 1 Day Protectant, rate 100 ppm, read-out: SEPTTR 1 DP disease control.
[8] abbreviates: 24 h, 1 Day Protectant, rate 121.5 g/H, read-out: SEPTTR 1 DP disease control.
Where [9] appears, read: 72 h, 3 Day Curative, rate 100 ppm, read-out: SEPTTR 3 DC disease control.
The mark [10] stands for this setting: 72 h, 3 Day Curative, rate 121.5 g/H, read-out: SEPTTR 3 DC disease control.
The mark [11] stands for this setting: 1 Day Protectant, rate 121.5 g/H.

In the case of `CCCO[C@@H]1[C@@H](CCC(C)C)CCC[C@H](NC(=O)c2nccc(OC)c2OCOC(C)=O)C(=O)O[C@H]1C` [Compound F92], the pest or weed control at 100 ppm (in assay [1] (setting [3]); in assay [1] (setting [5]); in the assay on Erysiphe cichoracearum; with Venturia inaequalis; in assay [2] (setting [7]); in assay [2] (setting [9])) was 80 to 100% throughout. Further, the pest or weed control at 121.5 g/ha in assay [1] (setting [4]), in assay [1] (setting [6]), in assay [2] (setting [8]) and in assay [2] (setting [10]) was 80 to 100% throughout.

With `CCCO[C@@H]1[C@@H](Cc2ccc(F)cc2)CCC[C@H](NC(=O)c2nccc(OC)c2OCOC(=O)COCC)C(=O)O[C@H]1C` [Compound F167], the pest or weed control at 100 ppm (in assay [1] (setting [3]); in assay [1] (setting [5]); in the assay on Erysiphe cichoracearum; in the assay with Venturia inaequalis; in assay [2] (setting [7]); in assay [2] (setting [9])) was 80 to 100% each time. Also, the pest or weed control at 121.5 g/ha in assay [1] (setting [4]), in assay [1] (setting [6]), in assay [2] (setting [8]) and in assay [2] (setting [10]) was 80 to 100% throughout.

In the case of `COc1ccnc(C(=O)N[C@H]2CCC[C@H](Cc3ccccc3)[C@@H](OCC(C)C)[C@H](C)OC2=O)c1OCOC(C)=O` [Compound F106], the pest or weed control at 100 ppm fell in the range of 80 to 100% in assay [1] (setting [3]); 80 to 100% in assay [1] (setting [5]); 80 to 100% with Erysiphe cichoracearum; 0 to 80% in the assay with Venturia inaequalis; 80 to 100% in assay [2] (setting [7]); 80 to 100% in assay [2] (setting [9]). The pest or weed control at 121.5 g/ha in assay [1] (setting [4]), in assay [1] (setting [6]), in assay [2] (setting [8]) and in assay [2] (setting [10]) was 80 to 100% each time.

Consider `CCCO[C@@H]1[C@@H](Cc2ccccc2)CCC[C@H](NC(=O)c2nccc(OC)c2OCOC(C)=O)C(=O)O[C@H]1C` [Compound F109], for which the pest or weed control at 100 ppm (in assay [1] (setting [3]); in assay [1] (setting [5]); in the assay with Erysiphe cichoracearum; in the assay with Venturia inaequalis; in assay [2] (setting [7]); in assay [2] (setting [9])) was 80 to 100% each time. Also, the pest or weed control at 121.5 g/ha in assay [1] (setting [4]), in assay [1] (setting [6]), in assay [2] (setting [8]) and in assay [2] (setting [10]) was 80 to 100% throughout.

With `CCCO[C@@H]1[C@@H](CCC(C)C)CCC[C@H](NC(=O)c2nccc(OC)c2OC(C)=O)C(=O)O[C@H]1C` [Compound F64], the pest or weed control at 100 ppm is 80 to 100% in assay [1] (setting [3]); 80 to 100% in assay [1] (setting [5]); 80 to 100% in the assay with Erysiphe cichoracearum; 0 to 80% in the assay on Venturia inaequalis; 80 to 100% in assay [2] (setting [7]); 80 to 100% in assay [2] (setting [9]). For the same compound, the pest or weed control at 121.5 g/ha in assay [1] (setting [4]), in assay [1] (setting [6]), in assay [2] (setting [8]) and in assay [2] (setting [10]) was 80 to 100% throughout.

As for `COc1ccnc(C(=O)N[C@H]2CCC[C@H](CC3CCCC3)[C@@H](OCC3CC3)[C@H](C)OC2=O)c1OCOC(C)=O` [Compound F117], the pest or weed control at 100 ppm (in assay [1] (setting [3]); in assay [1] (setting [5]); in the assay with Erysiphe cichoracearum; with Venturia inaequalis; in assay [2] (setting [7]); in assay [2] (setting [9])) was 80 to 100% in each case. Also, the pest or weed control at 121.5 g/ha in assay [1] (setting [4]), in assay [1] (setting [6]), in assay [2] (setting [8]) and in assay [2] (setting [10]) was 80 to 100% in each case.

`COCC[C@H]1CCC[C@H](NC(=O)c2nccc(OC)c2OCOC(C)=O)C(=O)O[C@@H](C)[C@@H]1Oc1ccccc1` [Compound F130]: the pest or weed control at 100 ppm fell in the range of 80 to 100% in assay [1] (setting [3]); 80 to 100% in assay [1] (setting [5]); 0 to 80% in the assay on Erysiphe cichoracearum; 0 to 80% in the assay with Venturia inaequalis; 80 to 100% in assay [2] (setting [7]); 0 to 80% in assay [2] (setting [9]). Moreover, the pest or weed control at 121.5 g/ha in assay [1] (setting [4]), in assay [1] (setting [6]), in assay [2] (setting [8]) and in assay [2] (setting [10]) was 80 to 100% each time.

On to `COCC[C@H]1CCC[C@H](NC(=O)c2nccc(OC)c2OC(C)=O)C(=O)O[C@@H](C)[C@@H]1Oc1ccccc1` [Compound F78], for which the pest or weed control at 100 ppm fell in the range of 80 to 100% in assay [1] (setting [3]); 80 to 100% in assay [1] (setting [5]); 0 to 80% in the assay on Erysiphe cichoracearum; 0 to 80% with Venturia inaequalis; 80 to 100% in assay [2] (setting [7]); 80 to 100% in assay [2] (setting [9]). The pest or weed control at 121.5 g/ha in assay [1] (setting [4]), in assay [1] (setting [6]), in assay [2] (setting [8]) and in assay [2] (setting [10]) was 80 to 100% each time.

Consider `COc1ccnc(C(=O)N[C@H]2CCC[C@H](Cc3ccc(F)cc3)[C@@H](OCC3CC3)[C@H](C)OC2=O)c1OCOC(C)=O` [Compound F98], for which the “PUCCRT 1 DP disease control” value in assay [1] (1 Day Protectant, rate 100 ppm) is on record as “A (80-100)”; in assay [1] (setting [11]) it was “A (80-100)”. The “PUCCRT 3 DC disease control” value in assay [1] (3 Day Curative, rate 100 ppm) was “A (80-100)”; in assay [1] (3 Day Curative, rate 121.5 g/H), “A (80-100)”. For the same compound, the “Disease Control ERYSCI 1 DP” value in the assay on Erysiphe cichoracearum (100 ppm) is recorded as “A (80-100)”. The “Disease Control VENTIN 1 DP” value in the assay with Venturia inaequalis (100 ppm) is on record as “B (More than 0-Less than 80)”. The “SEPTTR 1 DP disease control” value in assay [2] (1 Day Protectant, rate 100 ppm) is listed as “A (80-100)”; in assay [2] (setting [11]) it was “A (80-100)”. In addition, the “SEPTTR 3 DC disease control” value in assay [2] (3 Day Curative, rate 100 ppm) was “A (80-100)”; in assay [2] (3 Day Curative, rate 121.5 g/H) it was “A (80-100)”.

As to `CCOCC(=O)OCOc1c(OC)ccnc1C(=O)N[C@H]1CCC[C@H](Cc2ccc(F)cc2)[C@@H](OCC2CC2)[C@H](C)OC1=O` [Compound F164], the pest or weed control at 100 ppm (in assay [1] (setting [3]); in assay [1] (setting [5]); in the assay on Erysiphe cichoracearum; with Venturia inaequalis; in assay [2] (setting [7]); in assay [2] (setting [9])) was 80 to 100% throughout. The pest or weed control at 121.5 g/ha in assay [1] (setting [4]) fell in the range of 80 to 100%; in assay [1] (setting [6]), 0 to 80%; in assay [2] (setting [8]), 80 to 100%; in assay [2] (setting [10]), 80 to 100%.

For the compound `CCOCC(=O)OCOc1c(OC)ccnc1C(=O)N[C@H]1CCC[C@H](Cc2ccccc2)[C@@H](OCC(C)C)[C@H](C)OC1=O` [Compound F172], the pest or weed control at 100 ppm is 80 to 100% in assay [1] (setting [3]); 80 to 100% in assay [1] (setting [5]); 80 to 100% with Erysiphe cichoracearum; 0 to 80% in the assay with Venturia inaequalis; 80 to 100% in assay [2] (setting [7]); 80 to 100% in assay [2] (setting [9]). For the same compound, the pest or weed control at 121.5 g/ha in assay [1] (setting [4]), in assay [1] (setting [6]), in assay [2] (setting [8]) and in assay [2] (setting [10]) was 80 to 100% each time.
